In the assay the test system is 128128-338-R-J1-PDC spheroids, viability % test/control. Briefly: Anticancer human tumor 128128-338-R-J1-PDC patient-derived melanoma cell line growth inhibition [TAK]. The conditions noted are these: spheroids with HUVEC and MSC; for viability, T/C: stronger effect = lower value. An outline of the steps: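 Drug combinations, each paired with TAK-243 or ipatasertib, were tested on multi-cell spheroids of 60% malignant cells, 25% HUVEC and 15% hMSC. Top concentrations were at or near the clinical Cmax (10 microM if undetermined), decreasing by half-log; viability is given as % test/control.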

[1] abbreviates: curve of first compound, second compound 0.3 µM.
[2] abbreviates: curve of first compound, second compound 0.949 µM.
The mark [3] stands for this setting: curve of first compound, second compound 3 µM.
[4] abbreviates: curve of first compound, second compound 9.49 µM.
Where [5] appears, read: curve of first compound, second compound 30 µM.

“And” between values parts separate entries of the source, which are not always exact repeats. Equal values may be shown once.

The values that follow come from PubChem BioAssay AID2060362 (Molecular Pharmacology Branch, DTP, NCI, 2025).
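Also: spheroids exposed to compounds for 7 days.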
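For viability, T/C in this document: 100% = DMSO vehicle wells.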

Turning to `CC(=O)Nc1cccc(-n2c(=O)n(C3CC3)c(=O)c3c(Nc4ccc(I)cc4F)n(C)c(=O)c(C)c32)c1` + CC(C)NCC(C(=O)N1CCN(c2ncnc3c2C(C)CC3O)CC1)c1ccc(Cl)cc1, the 50% inhibitory concentration (IC50) (as a rule, the point on the concentration scale where inhibition reaches its midpoint) reads like this: under setting [1], 1.62 nM; under setting [2], 1.76 nM; under setting [3], 1.25 nM; under setting [4], 0.348 nM; under setting [5], < 0.0949 nM. Besides, the viability, T/C (commonly the result in the treated group divided by that in the control group, in per cent) by setting is: (second compound 0.3 µM, first compound 94.9 pM) 98.8%; (second compound 0.3 µM, first compound 0.0003 µM) 97.5%; (second compound 0.3 µM, first compound 0.000949 µM) 73.5%; (second compound 0.3 µM, first compound 0.003 µM) 22.7%; (second compound 0.3 µM, first compound 0.00949 µM) 2.28%; (second compound 0.3 µM, first compound 0.03 µM) 1.04%. The viability, T/C reads like this: (second compound 0.949 µM, first compound 94.9 pM) 100%; (second compound 0.949 µM, first compound 0.0003 µM) 94%; (second compound 0.949 µM, first compound 0.000949 µM) 77.8%; (second compound 0.949 µM, first compound 0.003 µM) 26.2%; (second compound 0.949 µM, first compound 0.00949 µM) 1.76%; (second compound 0.949 µM, first compound 0.03 µM) 0.37%. Further, the viability, T/C (second compound 3 µM, first compound 94.9 pM) was 87.3%; the viability, T/C (second compound 3 µM, first compound 0.0003 µM) is 82.8%; the viability, T/C (second compound 3 µM, first compound 0.000949 µM) was 61.9%; the viability, T/C (second compound 3 µM, first compound 0.003 µM) is 12.6%; the viability, T/C (second compound 3 µM, first compound 0.00949 µM) is 0.36%; the viability, T/C (second compound 3 µM, first compound 0.03 µM) was 0.28%. Further, the viability, T/C reads like this: (second compound 9.49 µM, first compound 94.9 pM) 63.9%; (second compound 9.49 µM, first compound 0.0003 µM) 55%; (second compound 9.49 µM, first compound 0.000949 µM) 16.2%; (second compound 9.49 µM, first compound 0.003 µM) 0.75%; (second compound 9.49 µM, first compound 0.00949 µM) 0.11%; (second compound 9.49 µM, first compound 0.03 µM) 0.09%. Further, the viability, T/C was 20.5% (second compound 30 µM, first compound 94.9 pM); 10.1% (second compound 30 µM, first compound 0.0003 µM); 0.5% (second compound 30 µM, first compound 0.000949 µM); 0.25% (second compound 30 µM, first compound 0.003 µM); 0.1% (second compound 30 µM, first compound 0.00949 µM); 0.12% (second compound 30 µM, first compound 0.03 µM).

With `Cc1nc(NC(=O)N2CCCC2C(N)=O)sc1-c1ccnc(C(C)(C)C(F)(F)F)c1` (centres undefined), the viability, T/C by setting is: (compound 0.0316 µM) 96.8% and 97.9%; (compound 0.1 µM) 98% and 97.4%; (compound 0.316 µM) 96% and 95.9%; (compound 1 µM) 96.9% and 92.3%; (compound 3.16 µM) 90.8% and 88.5%; (compound 10 µM) 81.5% and 71.4%. Besides, for the setting “curve of compound”, the IC50 was > 10000 nM.

With `CCCS(=O)(=O)Nc1ccc(F)c(C(=O)c2c[nH]c3ncc(-c4ccc(Cl)cc4)cc23)c1F`, the viability, T/C was 79.4% and 79.2% (compound 0.316 µM); 60.5% and 59.8% (compound 1 µM); 12.7% and 14.3% (compound 3.16 µM); 0.39% and 0.64% (compound 10 µM); 1.44% and 0.22% (compound 31.6 µM); 1.11% and 5.48% (compound 100 µM). For the same molecule, the IC50 (curve of compound) was 1290 nM and 1280 nM.

As for `CC(C)CC(NC(=O)C(Cc1ccccc1)NC(=O)c1cnccn1)B(O)O` (centres undefined) + CC(C)NCC(C(=O)N1CCN(c2ncnc3c2C(C)CC3O)CC1)c1ccc(Cl)cc1, the IC50 is 1.8 nM under setting [1]; 1.82 nM under setting [2]; 1.64 nM under setting [3]; 1.22 nM under setting [4]; < 0.0316 nM under setting [5]. In addition, the viability, T/C runs as follows: (second compound 0.3 µM, first compound 31.6 pM) 102%; (second compound 0.3 µM, first compound 0.0001 µM) 102%; (second compound 0.3 µM, first compound 0.000316 µM) 96.1%; (second compound 0.3 µM, first compound 0.001 µM) 97.3%; (second compound 0.3 µM, first compound 0.00316 µM) 4.43%; (second compound 0.3 µM, first compound 0.01 µM) 0.08%. Moreover, the viability, T/C is 102% (second compound 0.949 µM, first compound 31.6 pM); 108% (second compound 0.949 µM, first compound 0.0001 µM); 109% (second compound 0.949 µM, first compound 0.000316 µM); 101% (second compound 0.949 µM, first compound 0.001 µM); 2.86% (second compound 0.949 µM, first compound 0.00316 µM); 0.1% (second compound 0.949 µM, first compound 0.01 µM). The viability, T/C (second compound 3 µM, first compound 31.6 pM) was 84%; the viability, T/C (second compound 3 µM, first compound 0.0001 µM) was 87.6%; the viability, T/C (second compound 3 µM, first compound 0.000316 µM) was 90.9%; the viability, T/C (second compound 3 µM, first compound 0.001 µM) was 83.1%; the viability, T/C (second compound 3 µM, first compound 0.00316 µM) was 6.23%; the viability, T/C (second compound 3 µM, first compound 0.01 µM) is 0.05%. Further, the viability, T/C was 66.8% (second compound 9.49 µM, first compound 31.6 pM); 71% (second compound 9.49 µM, first compound 0.0001 µM); 72.5% (second compound 9.49 µM, first compound 0.000316 µM); 60% (second compound 9.49 µM, first compound 0.001 µM); 1.26% (second compound 9.49 µM, first compound 0.00316 µM); 0.08% (second compound 9.49 µM, first compound 0.01 µM). Also, the viability, T/C by setting is: (second compound 30 µM, first compound 31.6 pM) 21.8%; (second compound 30 µM, first compound 0.0001 µM) 21.8%; (second compound 30 µM, first compound 0.000316 µM) 23.7%; (second compound 30 µM, first compound 0.001 µM) 22%; (second compound 30 µM, first compound 0.00316 µM) 0.38%; (second compound 30 µM, first compound 0.01 µM) 0.13%.
